According to patent publication US10941157B2, “Pesticidal compositions and uses thereof” (Gilead Apollo, LLC, priority 2015, dated 2021):
In brackets after ≈: the same amount, converted by molar mass. Like-named read-outs stand apart in the source and are kept apart here.

Columns and labels:
[1] = tested on: Collectotrichum graminicola (Cg); assay: In vitro pathogen growth inhibition assay, Cg; assay type: cell-based; conditions: 48 h
How it was run: (§1)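 Value reported is the compound concentration reaching ≥90% growth inhibition, from OD readings at 24 and 48 h after blank subtraction, confirmed visually. Inoculum was spores diluted in 17% V8 medium, except Rs, using 1.5 mm mycelial plugs in ¼ PDB; actual compound concentration corrected via OD600.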

Fusarium graminearum = assay type: in vivo; conditions: spray on flowering Triticum aestivum cv. Samson, inoculated 24 hours after treatment, evaluated 14 days later
Botrtyis cinerea (Bc) = assay: In vitro pathogen growth inhibition assay, Bc; assay type: cell-based; conditions: 48 h
How it was run: as §1

Diplodia maydis (Dm) = assay: In vitro pathogen growth inhibition assay, Dm; assay type: cell-based; conditions: Stenocarpella maydis, 48 h
How it was run: as §1

[2] = tested on: Fusarium virguliforme (Fv); assay: In vitro pathogen growth inhibition assay, Fv; assay type: cell-based
How it was run: as §1

Rhizoctonia solani (Rs) = assay: In vitro pathogen growth inhibition assay, Rs (mycelial plugs); assay type: cell-based; conditions: Rhizoctonia solani, 48 h, mycelial plugs
How it was run: as §1

Puccinia triticina = assay: Foliar protection test for wheat leaf rust control; assay type: in vivo; conditions: foliar application to wheat (Triticum aestivum cv. Winterhawk), evaluated 10 days later
[3] = tested on: Mycosphaerella graminicola (synthetic Septoria tritici); assay: Foliar protection test for wheat septoria leaf blotch control; assay type: in vivo; conditions: foliar spray on Triticum aestivum cv. WinterHawk, inoculated 1 hour after treatment, evaluated 16 days later
[4] = tested on: Fusarium moniliforme (Fm); assay: In vitro pathogen growth inhibition assay, Fm; assay type: cell-based; conditions: Fusarium verticillioides
How it was run: as §1

Septoria tritici (St) = assay: In vitro pathogen growth inhibition assay, St; assay type: cell-based; conditions: Zymoseptoria tritici, 48 h
How it was run: as §1

Phakopsora pachyrhizi = assay: Foliar protection test for Asian soybean rust control; assay type: in vivo; conditions: foliar application to soybean (Glycine max AG4832), percent disease area evaluated 14 days later
[5] = tested on: Blumeria graminis f. sp. hordei; assay: Foliar protection test for barley powdery mildew control; assay type: in vivo; conditions: foliar spray on Hordeum vulgare cv. Perry, inoculated 24 hours after treatment, evaluated 7 days later
How it was run: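 Protective foliar test: compound atomized onto both leaf surfaces of 6-day-old Hordeum vulgare cv. Perry, followed after 24 h by spore-cloud inoculation from colonized untreated plants. Disease rated on leaves 7 days on, plants held at 20 to 22° C and 70% RH.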

[6] = tested on: Phytophthora capsici (Pc); assay: In vitro pathogen growth inhibition assay, Pc; assay type: cell-based; conditions: 48 h
How it was run: as §1

Sphaerotheca fuliginea = assay: Foliar protection for cucumber powdery mildew control; assay type: in vivo; conditions: foliar spray on Cucumis sativus cv. Straight Eight, inoculated 24 hours after treatment, evaluated 7 days later
How it was run: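 Protective foliar spray on 10-day-old Straight Eight cucumbers, with S. fuliginea spores dusted from infected stock plants 24 h after treatment. Disease developed at 23–27 °C, 60% RH and a 16 h photoperiod. Leaves were rated for mildew growth after 7 days; test rates 10 ppm or below.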

[7] = ≥90% growth inhibition, 48 hours, vs 2% DMSO control, read-out: Compound Concentration (ppm) sufficient for ≥90% inhibition of Cg
[8] = ≥90% growth inhibition, 48 hours, vs 2% DMSO control, read-out: Compound Concentration (ppm) sufficient for ≥90% inhibition of Bc
[9] = ≥90% growth inhibition, 48 hours, vs 2% DMSO control, read-out: Compound Concentration (ppm) sufficient for ≥90% inhibition of Dm
[10] = ≥90% growth inhibition, 48 hours, vs 2% DMSO control, read-out: Compound Concentration (ppm) sufficient for ≥90% inhibition of Fv
[11] = ≥90% growth inhibition, 48 hours, vs 2% DMSO control, read-out: Compound Concentration (ppm) sufficient for ≥90% inhibition of Rs
[12] = ≥90% growth inhibition, 48 hours, vs 2% DMSO control, read-out: Compound Concentration (ppm) sufficient for ≥90% inhibition of Fm
[13] = ≥90% growth inhibition, 48 hours, vs 2% DMSO control, read-out: Compound Concentration (ppm) sufficient for ≥90% inhibition of St
[14] = ≥90% growth inhibition, 48 hours, vs 2% DMSO control, read-out: Compound Concentration (ppm) sufficient for ≥90% inhibition of Pc

| SMILES | Wheat Fusarium Head Blight Control at a compound concentration of 25 ppm or lower (Fusarium graminearum) | Wheat Leaf Rust Control at a compound concentration of 10 ppm or lower (Puccinia triticina) | Septoria Leaf Blotch Control at a compound concentration of 25 ppm or lower [3] | Asian Soybean Rust Control at a compound concentration of 25 ppm or lower (Phakopsora pachyrhizi) | Barley Powdery Mildew Control at a compound concentration of 10 ppm or lower [5] | Cucumber Powdery Mildew Control at a compound concentration of 10 ppm or lower (Sphaerotheca fuliginea) | IC90 [1, 7] [µg/mL] | IC90 (Botrtyis cinerea (Bc); [8]) [µg/mL] | IC90 (Diplodia maydis (Dm); [9]) [µg/mL] | IC90 [2, 10] [µg/mL] | IC90 (Rhizoctonia solani (Rs); [11]) [µg/mL] | IC90 [4, 12] [µg/mL] | IC90 (Septoria tritici (St); [13]) [µg/mL] | IC90 [6, 14] [µg/mL] | also measured |
| --- | --- | --- | --- | --- | --- | --- | --- | --- | --- | --- | --- | --- | --- | --- | --- |
| COCCO[C@@H](Cn1c(=O)n(C(C)C(=O)NC(C)C)c(=O)c2c(C)c(-n3nccn3)sc21)c1cc(F)ccc1OC (stereo partly drawn) [Compound I-082, 2-(1-((R)-2-(5-fluoro-2-methoxyphenyl)-2-(2-methoxyethoxy)ethyl)-5-methyl-2,4-dioxo-6-(2H-1,2,3-triazol-2-yl)-1,4-dihydrothieno[2,3-d]pyrimidin-3 (2H)-yl)-N-isopropylpropanamide] | C (from 25 to 49% control of wheat fusarium head blight) | B (from 50 to 69% control of wheat leaf rust) | AA (≥85% control of wheat septoria leaf blotch) | B (from 50 to 69% control of Asian soybean rust) | AA (≥85% control of barley powdery mildew) | AA (≥85% control of cucumber powdery mildew) |  |  |  |  |  |  |  |  | IC90 ([1]; ≥90% inhibition, 48 hours vs 2% DMSO control, read-out: Compound Concentration (ppm) sufficient for ≥90% inhibition of growth, Cg): 0.4 µg/mL (≈ 0.68 µM); IC90 (Botrtyis cinerea (Bc); ≥90% inhibition, 48 hours vs 2% DMSO control, read-out: Compound Concentration (ppm) sufficient for ≥90% inhibition of growth, Bc): 2 µg/mL (≈ 3.4 µM); IC90 (Diplodia maydis (Dm); ≥90% inhibition, 48 hours vs 2% DMSO control, read-out: Compound Concentration (ppm) sufficient for ≥90% inhibition of growth, Dm): 0.4 µg/mL (≈ 0.68 µM); IC90 ([2]; ≥90% inhibition, 48 hours vs 2% DMSO control, read-out: Compound Concentration (ppm) sufficient for ≥90% inhibition of growth, Fv): 0.4 µg/mL (≈ 0.68 µM); IC90 (Rhizoctonia solani (Rs); ≥90% inhibition, 48 hours vs 2% DMSO control, read-out: Compound Concentration (ppm) sufficient for ≥90% inhibition of growth, Rs): 0.24 µg/mL (≈ 0.408 µM); IC90 ([4]; ≥90% inhibition, 48 hours vs 2% DMSO control, read-out: Compound Concentration (ppm) sufficient for ≥90% inhibition of growth, Fm): 0.08 µg/mL (≈ 0.136 µM); IC90 (Septoria tritici (St); ≥90% inhibition, 48 hours vs 2% DMSO control, read-out: Compound Concentration (ppm) sufficient for ≥90% inhibition of growth, St): 30 µg/mL (≈ 51 µM); IC90 ([6]; ≥90% inhibition, 48 hours vs 2% DMSO control, read-out: Compound Concentration (ppm) sufficient for ≥90% inhibition of growth, Pc): 10 µg/mL (≈ 17 µM) |
| CCOC(=O)c1sc2c(c1C)c(=O)n(C(C)(C)C(=O)NC(C)C)c(=O)n2C[C@H](OCCC#N)c1ccccc1OC [Compound I-233, (R)-ethyl-1-(2-(2-cyanoethoxy)-2-(2-methoxyphenyl)ethyl)-3-(1-(isopropylamino)-2-methyl-1-oxopropan-2-yl)-5-methyl-2,4-dioxo-1,2,3,4-tetrahydrothieno[2,3-d]pyrimidine-6-carboxylate] | C (from 25 to 49% control of wheat fusarium head blight) | AA (≥85% control of wheat leaf rust) | C (from 25 to 49% control of wheat septoria leaf blotch) | A (from 70% to 84% control of Asian soybean rust) | AA (≥85% control of barley powdery mildew) | A (from 70% to 84% control of cucumber powdery mildew) | 0.4 (≈ 0.684 µM) | 0.4 (≈ 0.684 µM) | 0.4 (≈ 0.684 µM) | 0.4 (≈ 0.684 µM) | 2 (≈ 3.42 µM) | 0.08 (≈ 0.137 µM) | ≥ 10 | ≥ 2 |  |
| COc1ccc(F)cc1[C@H](Cn1c(=O)n(C(C)(C)C(=O)NC(C)C)c(=O)c2c(C)c(-n3nccn3)sc21)OCCS(C)(=O)=O [Compound I-287, (R)-2-(1-(2-(5-fluoro-2-methoxyphenyl)-2-(2-(methylsulfonyl)ethoxy)ethyl)-5-methyl-2,4-dioxo-6-(2H-1,2,3-triazol-2-yl)-1,4-dihydrothieno[2,3-d]pyrimidin-3 (2H)-yl)-N-isopropyl-2-methylpropanamide] | C (from 25 to 49% control of wheat fusarium head blight) | AA (≥85% control of wheat leaf rust) | AA (≥85% control of wheat septoria leaf blotch) | AA (≥85% control of Asian soybean rust) | AA (≥85% control of barley powdery mildew) | AA (≥85% control of cucumber powdery mildew) | 0.4 (≈ 0.615 µM) | 2 (≈ 3.07 µM) | 0.4 (≈ 0.615 µM) | 2 (≈ 3.07 µM) | 0.08 (≈ 0.123 µM) | 0.4 (≈ 0.615 µM) | ≥ 50 | 10 (≈ 15.4 µM) |  |
| COc1ccc(F)cc1[C@@H](O)Cn1c(=O)n([C@H](C)C(=O)N(C)C(C)C)c(=O)c2c(C)c(-n3nccn3)sc21 [Compound I-188, (R)-2-(1-((R)-2-(5-fluoro-2-methoxyphenyl)-2-hydroxyethyl)-5-methyl-2,4-dioxo-6-(2H-1,2,3-triazol-2-yl)-1,4-dihydrothieno[2,3-d]pyrimidin-3 (2H)-yl)-N-isopropyl-N-methylpropanamide] | D (<25% control of wheat fusarium head blight) | AA (≥85% control of wheat leaf rust) | C (from 25 to 49% control of wheat septoria leaf blotch) | B (from 50 to 69% control of Asian soybean rust) | AA (≥85% control of barley powdery mildew) | AA (≥85% control of cucumber powdery mildew) | 2 (≈ 3.67 µM) | 0.4 (≈ 0.734 µM) | 2 (≈ 3.67 µM) | 0.4 (≈ 0.734 µM) | 0.4 (≈ 0.734 µM) | 0.08 (≈ 0.147 µM) | > 50 | > 50 |  |
| COCCO[C@@H](Cn1c(=O)n([C@H](C)C(=O)NC(C)C)c(=O)c2c(C)c(-n3nccn3)sc21)c1cc(F)ccc1OC [Compound I-171, (R)-2-(1-((R)-2-(5-fluoro-2-methoxyphenyl)-2-(2-methoxyethoxy)ethyl)-5-methyl-2,4-dioxo-6-(2H-1,2,3-triazol-2-yl)-1,4-dihydrothieno[2,3-d]pyrimidin-3 (2H)-yl)-N-isopropylpropanamide] | C (from 25 to 49% control of wheat fusarium head blight) | B (from 50 to 69% control of wheat leaf rust) | AA (≥85% control of wheat septoria leaf blotch) | A (from 70% to 84% control of Asian soybean rust) | AA (≥85% control of barley powdery mildew) | AA (≥85% control of cucumber powdery mildew) | 0.08 (≈ 0.136 µM) | 0.08 (≈ 0.136 µM) | 0.08 (≈ 0.136 µM) | ≥ 0.4 | 0.08 (≈ 0.136 µM) | 0.08 (≈ 0.136 µM) | ≥ 2 | ≥ 10 |  |
